Calls of active or inactive are those of the source. The calls are words filed in the database; no cut-off is given here.
How the values were obtained:
ECV-304 = test: Cytotoxicity in E304 cells; format: functional, cell-based; details: Homo sapiens
HFF = test: Cytotoxicity in HFF cells; format: functional, cell-based; details: Homo sapiens
[1] = target: RNA-directed RNA polymerase (Hepacivirus hominis, UniProt O39930); test: Inhibitory activity against HCV delta 21 NS5b RNA polymerase
[2] = Plasma clearance in rat at 0.86 mg/kg, iv; format: ADME, organism-based; design: dose 0.86 mg/kg, route intravenous; details: Sprague-Dawley
[3] = Volume of distribution in rat at 0.86 mg/kg, iv; format: ADME, organism-based; design: dose 0.86 mg/kg, route intravenous; details: Sprague-Dawley, in vivo, read-out: Vdss
[4] = Tmax in rat at 4.3 mg/kg, po; format: ADME, organism-based; design: dose 4.3 mg/kg, route oral; details: Sprague-Dawley, in vivo
[5] = Half life in rat at 0.86 mg/kg, iv; format: ADME, organism-based; design: dose 0.86 mg/kg, route intravenous; details: Sprague-Dawley, in vivo
[6] = AUC(0-8h) in rat at 4.3 mg/kg, po; format: ADME, organism-based; design: time < 8 hr, dose 4.3 mg/kg, route oral; details: Sprague-Dawley, plasma
[7] = Cmax in rat at 4.3 mg/kg, po; format: ADME, organism-based; design: dose 4.3 mg/kg, route oral; details: Sprague-Dawley, in vivo
Genome polyprotein = Genome polyprotein (Bovine viral diarrhea virus (strain CP7) (BVDV) (Mucosal diseasevirus), UniProt Q96662); test: Inhibitory activity against BVDV NS5b RNA polymerase; design: species or system Bovine viral diarrhea virus 1
Sequence of Genome polyprotein (Q96662 3189-3907 limits assumed): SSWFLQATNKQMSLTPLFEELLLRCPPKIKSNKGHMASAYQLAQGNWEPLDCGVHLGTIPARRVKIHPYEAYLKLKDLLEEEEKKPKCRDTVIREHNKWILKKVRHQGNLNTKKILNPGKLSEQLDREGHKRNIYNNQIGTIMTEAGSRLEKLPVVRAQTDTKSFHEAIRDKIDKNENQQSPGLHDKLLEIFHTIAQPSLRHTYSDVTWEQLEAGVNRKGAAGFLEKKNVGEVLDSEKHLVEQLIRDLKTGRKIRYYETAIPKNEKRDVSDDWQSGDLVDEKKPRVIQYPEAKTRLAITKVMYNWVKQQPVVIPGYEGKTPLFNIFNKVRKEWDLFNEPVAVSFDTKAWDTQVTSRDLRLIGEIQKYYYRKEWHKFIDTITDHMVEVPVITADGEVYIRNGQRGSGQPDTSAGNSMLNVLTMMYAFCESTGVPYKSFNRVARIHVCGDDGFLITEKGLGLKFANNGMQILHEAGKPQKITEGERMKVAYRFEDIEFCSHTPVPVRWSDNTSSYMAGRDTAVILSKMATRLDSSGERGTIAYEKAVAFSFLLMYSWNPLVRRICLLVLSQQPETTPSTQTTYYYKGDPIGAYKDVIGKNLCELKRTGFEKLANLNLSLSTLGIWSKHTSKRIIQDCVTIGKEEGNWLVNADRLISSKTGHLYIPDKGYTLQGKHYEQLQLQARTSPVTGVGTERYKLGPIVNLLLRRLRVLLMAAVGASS

[8] = target: T1, Avian myoblastosis virus polyprotein II (Avian myeloblastosis virus, UniProt Q86831); test: Inhibitory activity against AMV Reverse transcriptase
T1 sequence (Q86831 whole entry): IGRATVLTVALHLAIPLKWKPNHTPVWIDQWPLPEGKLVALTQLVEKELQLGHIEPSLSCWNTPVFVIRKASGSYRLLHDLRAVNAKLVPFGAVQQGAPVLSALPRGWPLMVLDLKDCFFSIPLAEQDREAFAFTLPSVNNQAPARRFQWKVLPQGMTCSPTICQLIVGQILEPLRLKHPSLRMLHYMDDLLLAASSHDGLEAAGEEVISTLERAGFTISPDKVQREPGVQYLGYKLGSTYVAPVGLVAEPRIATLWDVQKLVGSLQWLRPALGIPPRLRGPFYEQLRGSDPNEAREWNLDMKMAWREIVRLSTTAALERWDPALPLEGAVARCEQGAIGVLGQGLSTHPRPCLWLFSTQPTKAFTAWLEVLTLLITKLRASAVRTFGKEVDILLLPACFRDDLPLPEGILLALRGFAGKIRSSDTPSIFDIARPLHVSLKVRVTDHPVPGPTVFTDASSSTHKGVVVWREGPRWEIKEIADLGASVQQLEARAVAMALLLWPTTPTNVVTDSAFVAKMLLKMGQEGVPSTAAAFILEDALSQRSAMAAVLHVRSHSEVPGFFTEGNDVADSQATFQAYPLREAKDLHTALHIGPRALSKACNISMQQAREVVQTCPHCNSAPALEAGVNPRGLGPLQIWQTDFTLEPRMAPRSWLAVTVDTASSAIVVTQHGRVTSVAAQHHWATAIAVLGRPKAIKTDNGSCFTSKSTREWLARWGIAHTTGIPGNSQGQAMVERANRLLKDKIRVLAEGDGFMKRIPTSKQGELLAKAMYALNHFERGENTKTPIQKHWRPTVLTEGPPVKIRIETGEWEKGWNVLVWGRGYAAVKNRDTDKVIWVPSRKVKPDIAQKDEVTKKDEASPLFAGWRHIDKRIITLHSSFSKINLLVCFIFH

[9] = Inhibition of Calpain
[10] = AUC(0-8h) in rat at 4.1 mg/kg, po; format: ADME, organism-based; design: time < 8 hr, dose 4.1 mg/kg, route oral; details: Sprague-Dawley, plasma
[11] = target: Aldo-keto reductase family 1 member B1 (Homo sapiens) (UniProt P15121); test: Inhibition of aldose reductase
[12] = Plasma clearance in rat at 0.16 mg/kg, iv; format: ADME, organism-based; design: dose 0.16 mg/kg, route intravenous; details: Sprague-Dawley
[13] = Cmax in rat at 4.1 mg/kg, po; format: ADME, organism-based; design: dose 4.1 mg/kg, route oral; details: Sprague-Dawley, in vivo
Homo sapiens = organism: Homo sapiens; test: Inhibition of human Caspase (caspase 1, caspase 3, caspase 6, caspase 7, caspase 8)
[14] = Tmax in rat at 4.1 mg/kg, po; format: ADME, organism-based; design: dose 4.1 mg/kg, route oral; details: Sprague-Dawley, in vivo
[15] = Volume of distribution in rat at 0.16 mg/kg, iv; format: ADME, organism-based; design: dose 0.16 mg/kg, route intravenous; details: Sprague-Dawley, in vivo, read-out: Vdss
[16] = target: Cathepsin B (Homo sapiens) (UniProt P07858); test: Inhibition of Cathepsin B
[17] = Half life in rat at 0.16 mg/kg, iv; format: ADME, organism-based; design: dose 0.16 mg/kg, route intravenous; details: Sprague-Dawley, in vivo
Tubulin (Homo sapiens) = Tubulin (Homo sapiens) (UniProt P68371+Q9H4B7+P0DPH7+P68366+Q13509+Q71U36+P04350+Q3ZCM7+P07437+P68363+Q9BQE3+Q6PEY2+Q13885+Q9BVA1+Q9BUF5); test: Effect on tubulin polymerization; format: functional

Sequence of RNA-directed RNA polymerase (O39930 whole entry): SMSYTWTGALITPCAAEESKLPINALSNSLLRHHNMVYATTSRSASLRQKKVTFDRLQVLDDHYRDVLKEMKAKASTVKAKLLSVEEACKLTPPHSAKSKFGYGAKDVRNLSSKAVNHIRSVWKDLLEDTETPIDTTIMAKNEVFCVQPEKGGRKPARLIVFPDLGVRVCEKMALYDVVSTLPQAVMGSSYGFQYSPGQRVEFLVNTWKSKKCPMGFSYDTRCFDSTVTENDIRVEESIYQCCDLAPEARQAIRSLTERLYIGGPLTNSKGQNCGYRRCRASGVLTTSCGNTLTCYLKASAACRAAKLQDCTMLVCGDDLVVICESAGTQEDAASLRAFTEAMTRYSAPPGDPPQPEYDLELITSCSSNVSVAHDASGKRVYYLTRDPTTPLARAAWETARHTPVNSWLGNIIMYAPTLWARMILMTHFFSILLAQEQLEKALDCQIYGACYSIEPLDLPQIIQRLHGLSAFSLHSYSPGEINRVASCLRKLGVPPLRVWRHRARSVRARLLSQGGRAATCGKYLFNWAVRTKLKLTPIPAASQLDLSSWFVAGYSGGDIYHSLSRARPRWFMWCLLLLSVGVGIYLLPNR

Row | SMILES | IC50 (ECV-304) [µM] | IC50 (HFF) [µM] | IC50 [1] [µM] | also measured
1 | O=C1/C(=C/c2ccc(Br)cc2)SC(=S)N1NS(=O)(=O)c1ccccc1 | > 50 | > 100 | 0.7 | 
2 | O=C1/C(=C/c2ccc(Cl)c(Cl)c2)SC(=S)N1NS(=O)(=O)c1cccs1 | > 50 | > 100 | 0.2 | clearance [2]: 2.83 mL/min/kg; Vd [3]: 0.7 L/kg; Tmax [4]: 1.7 h; half-life [5]: 3.3 h; AUC(0-t) at 8 h [6]: 25600 ng·h/mL; Cmax [7]: 3970 ng/mL
3 | NN1C(=O)/C(=C/c2ccc(Cl)cc2)SC1=S |  |  | 16 | 
4 | Cc1ccc(/C=C2\SC(=S)N(NS(=O)(=O)c3ccccc3)C2=O)cc1 | > 50 | > 100 | 10 | 
5 | O=C1/C(=C/c2ccccc2F)SC(=S)N1NS(=O)(=O)c1ccccc1 | > 50 | > 100 | 6.5 | 
6 | O=C1/C(=C/c2cc(F)c(F)c(F)c2)SC(=S)N1NS(=O)(=O)c1ccccc1 | > 50 | > 100 | 1 | 
7 | O=C1NC(=S)S/C1=C\c1ccc(Cl)cc1 |  |  | > 30 | 
8 | O=C1NC(=S)S/C1=C\c1ccc([N+](=O)[O-])cc1 |  |  | 22 | 
9 | CCN1C(=O)/C(=C/c2ccc(Cl)cc2)SC1=S |  |  | > 30 | 
10 | O=C1/C(=C/c2ccc(Cl)cc2)SC(=S)N1Cc1ccccc1 |  |  | > 30 | 
11 | O=C1/C(=C/c2ccc(F)cc2F)SC(=S)N1NS(=O)(=O)c1ccccc1 | > 50 | > 100 | 3 | 
12 | CN1C(=O)/C(=C/c2ccc([N+](=O)[O-])cc2)SC1=S |  |  | 30 | 
13 | Cc1cccc(/C=C2\SC(=S)N(NS(=O)(=O)c3ccccc3)C2=O)c1 | > 50 | > 100 | 25 | 
14 | Cc1ccc(/C=C2\SC(=S)N(N)C2=O)cc1 |  |  | > 30 | 
15 | O=C1/C(=C/c2ccc3c(c2)OCO3)SC(=S)N1NS(=O)(=O)c1ccccc1 | > 50 | > 100 | 15 | 
16 | O=C1/C(=C/c2ccc(Cl)c(F)c2)SC(=S)N1NS(=O)(=O)c1ccccc1 | > 50 | > 100 | 1 | 
17 | O=S(=O)(NN1C(=S)SC(Cc2ccc(Cl)c(Cl)c2)C1O)c1ccccc1 (stereo unspecified) |  |  | 27 | 
18 | NN1C(=O)/C(=C/c2ccc(F)cc2)SC1=S |  |  | 7 | 
19 | CN1C(=O)/C(=C/c2ccc(Cl)cc2)SC1=S |  |  | > 30 | 
20 | N#Cc1ccc(/C=C2\SC(=S)N(N)C2=O)cc1 |  |  | 7 | 
21 | CCCCS(=O)(=O)NN1C(=O)/C(=C/c2ccc(Cl)c(Cl)c2)SC1=S |  |  | 0.7 | 
22 | NN1C(=O)/C(=C/c2ccccc2)SC1=S |  |  | > 30 | 
23 | C/C(=C1/SC(=S)N(NS(=O)(=O)c2ccccc2)C1=O)c1ccc(Cl)c(Cl)c1 |  |  | 0.6 | 
24 | NN1C(=O)/C(=C/c2ccc([N+](=O)[O-])cc2)SC1=S |  |  | 1 | 

Row | SMILES | IC50 (ECV-304) [µM] | IC50 (HFF) [µM] | IC50 [1] [µM] | also measured
25 | O=C1/C(=C/c2ccc(F)c(F)c2F)SC(=S)N1NS(=O)(=O)c1ccccc1 | > 50 | > 100 | 1.9 | 
26 | O=C1/C(=C/c2ccc(F)cc2)SC(=S)N1NS(=O)(=O)c1ccccc1 | > 50 | > 100 | 1 | 
27 | O=C(NN1C(=O)/C(=C/c2ccc(Cl)cc2)SC1=S)c1ccccc1 |  |  | > 30 | 
28 | COc1cccc(/C=C2\SC(=S)N(NS(=O)(=O)c3ccccc3)C2=O)c1 | > 50 | > 100 | 5 | 
29 | O=C1/C(=C/c2cc(F)c(F)cc2F)SC(=S)N1NS(=O)(=O)c1ccccc1 | > 50 | > 100 | 0.2 | 
30 | COc1ccc(/C=C2\SC(=S)N(NS(=O)(=O)c3ccccc3)C2=O)cc1 | > 50 | > 100 | 5 | 
31 | O=C1/C(=C/c2ccc(Cl)cc2)SC(=S)N1NS(=O)(=O)c1ccccc1 |  |  | 1.5 | IC50 (Genome polyprotein): > 30 µM; IC50 [8]: > 30 µM
32 | O=C1/C(=C/c2ccc3ccccc3c2)SC(=S)N1NS(=O)(=O)c1ccccc1 | > 50 | > 100 | 3 | 
33 | O=C1/C(=C/c2ccc(Br)c(Br)c2)SC(=S)N1NS(=O)(=O)c1ccccc1 | > 50 | > 100 | 0.2 | 
34 | COc1ccc(/C=C2\SC(=S)N(N)C2=O)cc1 |  |  | > 30 | 
35 | O=C1/C(=C/c2ccc(-c3cc(C(F)(F)F)ccc3Cl)o2)SC(=S)N1NS(=O)(=O)c1ccccc1 |  |  | 0.1 | 
36 | O=C1/C(=C/c2ccccc2)SC(=S)N1NS(=O)(=O)c1ccccc1 | > 50 | > 100 | 30 | 
37 | Cc1ccc(/C=C2\SC(=S)N(NS(=O)(=O)c3ccccc3)C2=O)cc1C | > 50 | > 100 | 8 | 
38 | CC(/C=C1\SC(=S)N(NS(=O)(=O)c2ccccc2)C1=O)=C\c1ccccc1 | > 50 | > 100 | 0.2 | 
39 | O=C1/C(=C/c2ccc(Cl)c(Cl)c2)SC(=S)N1NS(=O)(=O)c1ccccc1 | > 50 | > 100 | 0.2 | Activity [9]: inactive; AUC(0-t) at 8 h [10]: 25500 ng·h/mL; Activity [11]: inactive; clearance [12]: 0.125 mL/min/kg; Cmax [13]: 3740 ng/mL; Activity (Homo sapiens): inactive; Tmax [14]: 3.3 h; Vd [15]: 0.09 L/kg; Activity [16]: inactive; half-life [17]: 9.2 h; Activity (Tubulin (Homo sapiens)): inactive
40 | O=C1C(Cc2ccc(Cl)c(Cl)c2)SC(=S)N1NS(=O)(=O)c1ccccc1 (stereo unspecified) |  |  | 11 | 
41 | O=C1/C(=C/c2cc(F)ccc2F)SC(=S)N1NS(=O)(=O)c1ccccc1 | > 50 | > 100 | 1.7 | 
42 | O=C1/C(=C/c2cccnc2)SC(=S)N1NS(=O)(=O)c1ccccc1 | > 50 | > 100 | 15 | 
43 | N#Cc1ccc(/C=C2\SC(=S)N(NS(=O)(=O)c3ccccc3)C2=O)cc1 | > 50 | > 100 | 0.9 | 
44 | CS(=O)(=O)NN1C(=O)/C(=C/c2ccc(Cl)c(Cl)c2)SC1=S |  |  | 2 | 
45 | CN(C)c1ccc(/C=C2\SC(=S)N(N)C2=O)cc1 |  |  | > 30 | 
46 | O=C1/C(=C/c2ccc(C(F)(F)F)cc2)SC(=S)N1NS(=O)(=O)c1ccccc1 | > 50 | > 100 | 1 | 
47 | O=C1/C(=C/c2ccc([N+](=O)[O-])cc2)SC(=S)N1NS(=O)(=O)c1ccccc1 | > 50 | > 100 | 2 | 
